From US6462038B1, “Androgen receptor modulator compounds and methods” (Ligand Pharmaceuticals, Inc., priority 1999, dated 2002) come the findings set out here.

The structures appear in SMILES notation. Read-outs that look alike come from different tables or passages of the source.

The term EC50 denotes the midpoint of the concentration-response curve. Read a low EC50 as higher potency in that assay.

Test [1] addresses T1, hAR (Homo sapiens, UniProt P10275).
T1 construct: expressed in transfected cells; host or cells: CV-1 cells (African green monkey kidney fibroblasts)
T1 sequence (P10275 1-920): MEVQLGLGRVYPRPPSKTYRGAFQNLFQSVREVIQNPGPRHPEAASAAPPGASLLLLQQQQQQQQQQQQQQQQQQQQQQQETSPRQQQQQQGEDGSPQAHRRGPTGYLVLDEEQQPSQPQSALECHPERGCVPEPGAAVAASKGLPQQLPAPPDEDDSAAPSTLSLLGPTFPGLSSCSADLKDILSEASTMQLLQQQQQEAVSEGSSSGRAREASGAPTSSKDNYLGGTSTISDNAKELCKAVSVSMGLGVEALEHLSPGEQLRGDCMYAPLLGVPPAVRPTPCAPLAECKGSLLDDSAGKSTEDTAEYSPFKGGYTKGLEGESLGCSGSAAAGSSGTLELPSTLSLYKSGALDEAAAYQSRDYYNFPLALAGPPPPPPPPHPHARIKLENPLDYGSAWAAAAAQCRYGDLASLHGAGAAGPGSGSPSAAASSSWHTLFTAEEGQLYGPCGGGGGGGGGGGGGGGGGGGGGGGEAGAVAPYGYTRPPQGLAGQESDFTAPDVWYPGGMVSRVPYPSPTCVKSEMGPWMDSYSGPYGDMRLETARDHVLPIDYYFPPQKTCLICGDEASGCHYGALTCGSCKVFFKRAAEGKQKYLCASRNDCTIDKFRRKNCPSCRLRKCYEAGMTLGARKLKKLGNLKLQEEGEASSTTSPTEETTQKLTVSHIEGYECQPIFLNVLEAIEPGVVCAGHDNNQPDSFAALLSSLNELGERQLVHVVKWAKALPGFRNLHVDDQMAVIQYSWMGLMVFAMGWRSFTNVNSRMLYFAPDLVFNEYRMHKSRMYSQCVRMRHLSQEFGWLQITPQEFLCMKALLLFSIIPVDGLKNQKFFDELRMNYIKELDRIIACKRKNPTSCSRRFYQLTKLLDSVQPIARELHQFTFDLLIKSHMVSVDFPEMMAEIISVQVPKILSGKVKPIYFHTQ
Put plainly: co-transfection assay, AR antagonist (in presence of DHT), CV-1 cells. Conditions: for AR Antagonist CV-1 Cells Efficacy (%): maximal inhibition. The class given is cell-based.

In test [2] the target is T1, hAR. Put plainly: co-transfection assay, AR agonist, CV-1 cells. The class given is cell-based. The note with it: for AR Agonist CV-1 Cells Efficacy (%): relative to maximum LUC production by reference agonist.
Where [3] appears, read: AR Agonist CV-1 Cells Potency (nM), hAR in CV-1 cells.

Take `CC[C@@H]1Oc2cc3[nH]c(=O)cc(C(F)(F)F)c3cc2N(CC(F)(F)F)[C@H]1C` (racemic) [Compound 128, (±)-trans-3-Ethyl-1,2,3,6-tetrahydro-2-methyl-1-(2,2,2-trifluoroethyl)-9-(trifluoromethyl)-7H-[1,4]oxazino[3,2-g]quinolin-7-one]: at hAR [1], the IC50 is 1340 nM. Moreover, at hAR [1] (hAR in CV-1 cells, DHT at EC50), the “AR Antagonist CV-1 Cells Efficacy (%)” value was determined as 42%. In addition, the EC50 at hAR [2] is greater than 10000 nM. The “AR Agonist CV-1 Cells Efficacy (%)” value on hAR [2] (hAR in CV-1 cells) was “na (na = not active (i.e. efficacy of < 20 and potency of > 10,000 nM for the cotransfection assay, and Ki > 1000 nM for the binding assay))”.
`CC[C@H]1Oc2cc3[nH]c(=O)cc(C(F)(F)F)c3cc2N(CC(F)(F)F)[C@H]1C` (racemic) [Compound 129, (±)-cis-3-Ethyl-1,2,3,6-tetrahydro-2-methyl-1-(2,2,2-trifluoroethyl)-9-(trifluoromethyl)-7H-[1,4]oxazino[3,2-g]quinolin-7-one]: the IC50 at hAR [1] is 13 nM. Further, the “AR Antagonist CV-1 Cells Efficacy (%)” value on hAR [1] (hAR in CV-1 cells, DHT at EC50) was determined as 76%. This compound came in with an EC50 on hAR [2] of 1340 nM. On hAR [2] (hAR in CV-1 cells), the “AR Agonist CV-1 Cells Efficacy (%)” value is 42%.
Turning to `O=c1cc(C(F)(F)F)c2cc3c(cc2[nH]1)OCC(CO)N3CC(F)(F)F` (racemic) [Compound 130, (±)-1,2,3,6-Tetrahydro-2-(hydroxymethyl)-1-(2,2,2-trifluoroethyl)-9-(trifluoromethyl)-7H-[1,4]oxazino[3,2-g]quinolin-7-one], the “AR Antagonist CV-1 Cells Efficacy (%)” value on hAR [1] (hAR in CV-1 cells, DHT at EC50) is “na (na = not active (i.e. efficacy of < 20 and potency of > 10,000 nM for the cotransfection assay, and Ki > 1000 nM for the binding assay))”. The “AR Agonist CV-1 Cells Efficacy (%)” value on hAR [2] (hAR in CV-1 cells) is 48%.
Take `CC(=O)OCC1COc2cc3[nH]c(=O)cc(C(F)(F)F)c3cc2N1CC(F)(F)F` (racemic) [Compound 131, (±)-1,2,3,6-Tetrahydro-2-(acetoxymethyl)-1-(2,2,2-trifluoroethyl)-9-(trifluoromethyl)-7H-[1,4]oxazino[3,2-g]quinolin-7-one]: at hAR [1], the IC50 is greater than 10000 nM. The “AR Antagonist CV-1 Cells Efficacy (%)” value on hAR [1] (hAR in CV-1 cells, DHT at EC50) was “na (na = not active (i.e. efficacy of < 20 and potency of > 10,000 nM for the cotransfection assay, and Ki > 1000 nM for the binding assay))”. For the same compound, at hAR [2], the EC50 turned out to be 31 nM. Further, the “AR Agonist CV-1 Cells Efficacy (%)” value at hAR [2] (hAR in CV-1 cells) was found to be 46%.
In the case of `COCC1COc2cc3[nH]c(=O)cc(C(F)(F)F)c3cc2N1CC(F)(F)F` (racemic) [Compound 132, (±)-1,2,3,6-Tetrahydro-2-(methoxymethyl)-1-(2,2,2-trifluoroethyl)-9-(trifluoromethyl)-7H-[1,4]oxazino[3,2-g]quinolin-7-one], the IC50 at hAR [1] is greater than 10000 nM. At hAR [1] (hAR in CV-1 cells, DHT at EC50), the “AR Antagonist CV-1 Cells Efficacy (%)” value is “na (na = not active (i.e. efficacy of < 20 and potency of > 10,000 nM for the cotransfection assay, and Ki > 1000 nM for the binding assay))”. This compound displayed an EC50 at hAR [2] (AR Agonist CV-1 Cells Potency (nM)) of 1.7 nM. For the same compound, the “AR Agonist CV-1 Cells Efficacy (%)” value at hAR [2] (hAR in CV-1 cells) is given as 72%.
`CCC1COc2cc3[nH]c(=O)cc(C(F)(F)F)c3cc2N1CC(F)(F)F` (racemic) [Compound 145, (±)-2-Ethyl-1,2,3,6-tetrahydro-1-(2,2,2-trifluoroethyl)-9-(trifluoromethyl)-7H-[1,4]oxazino[3,2-g]quinolin-7-one]: on hAR [1] (hAR in CV-1 cells, DHT at EC50), the “AR Antagonist CV-1 Cells Efficacy (%)” value was 30%. The “AR Agonist CV-1 Cells Efficacy (%)” value at hAR [2] (hAR in CV-1 cells) was 69%.
Take `CC1COc2cc3[nH]c(=O)cc(C(F)(F)F)c3cc2N1CC(F)(F)F` (single isomer, unassigned; (+)) [Compound 124, (+)-1,2,3,6-Tetrahydro-2-methyl-1-(2,2,2-trifluoroethyl)-9-(trifluoromethyl)-7H-[1,4]oxazino[3,2-g]quinolin-7-one]: the IC50 on hAR [1] is greater than 10000 nM. Also, the “AR Antagonist CV-1 Cells Efficacy (%)” value at hAR [1] (hAR in CV-1 cells, DHT at EC50) was “na (na = not active (i.e. efficacy of < 20 and potency of > 10,000 nM for the cotransfection assay, and Ki > 1000 nM for the binding assay))”. At hAR [2] (setting [3]), this compound had an EC50 of 3.6 nM. On hAR [2] (hAR in CV-1 cells), the “AR Agonist CV-1 Cells Efficacy (%)” value was 54%.
Regarding `CC1COc2cc3[nH]c(=O)cc(C(F)(F)F)c3cc2N1CC(F)(F)F` (single isomer, unassigned; (-)) [Compound 125, (−)-1,2,3,6-Tetrahydro-2-methyl-1-(2,2,2-trifluoroethyl)-9-(trifluoromethyl)-7H-[1,4]oxazino[3,2-g]quinolin-7-one], the “AR Antagonist CV-1 Cells Efficacy (%)” value on hAR [1] (hAR in CV-1 cells, DHT at EC50) was “na (na = not active (i.e. efficacy of < 20 and potency of > 10,000 nM for the cotransfection assay, and Ki > 1000 nM for the binding assay))”. Further, the IC50 at hAR [1] (read-out: AR Antagonist CV-1 Cells Potency, hAR in CV-1 cells, DHT at EC50) was greater than 10000 nM. For the same compound, a half-maximal effect on hAR [2] (setting [3]) (EC50) was put at 0.7 nM. At hAR [2] (hAR in CV-1 cells), the “AR Agonist CV-1 Cells Efficacy (%)” value worked out at 74%.
In the case of `O=c1[nH]c2cc3c(cc2c(C(F)(F)F)c1F)N(CC(F)(F)F)CCO3` [Compound 106, 8-Fluoro-1,2,3,6-tetrahydro-1-(2,2,2-trifluoroethyl)-9-(trifluoromethyl)-7H-[1,4]oxazino[3,2-g]quinolin-7-one], the IC50 on hAR [1] is greater than 10000 nM. The “AR Antagonist CV-1 Cells Efficacy (%)” value on hAR [1] (hAR in CV-1 cells, DHT at EC50) was “na (na = not active (i.e. efficacy of < 20 and potency of > 10,000 nM for the cotransfection assay, and Ki > 1000 nM for the binding assay))”. The EC50 on hAR [2] worked out at 4 nM. On hAR [2] (hAR in CV-1 cells), the “AR Agonist CV-1 Cells Efficacy (%)” value was determined as 80%.
As for `O=c1[nH]c2cc3c(cc2c(C(F)(F)F)c1Cl)N(CC(F)(F)F)CCO3` [Compound 107, 8-Chloro-1,2,3,6-tetrahydro-1-(2,2,2-trifluoroethyl)-9-(trifluoromethyl)-7H-[1,4]oxazino[3,2-g]quinolin-7-one], the IC50 at hAR [1] is greater than 10000 nM. Moreover, the “AR Antagonist CV-1 Cells Efficacy (%)” value at hAR [1] (hAR in CV-1 cells, DHT at EC50) was “na (na = not active (i.e. efficacy of < 20 and potency of > 10,000 nM for the cotransfection assay, and Ki > 1000 nM for the binding assay))”. This compound also showed an EC50 on hAR [2] of 26 nM. Further, on hAR [2] (hAR in CV-1 cells), the “AR Agonist CV-1 Cells Efficacy (%)” value is 92%.
On to `O=c1cc(C(F)F)c2cc3c(cc2[nH]1)OCCN3CC(F)(F)F` [Compound 108, 9-(Difluoromethyl)-1,2,3,6-tetrahydro-1-(2,2,2-trifluoroethyl)-7H-[1,4]oxazino[3,2-g]quinolin-7-one], for which the IC50 on hAR [1] was greater than 10000 nM. Moreover, on hAR [1] (hAR in CV-1 cells, DHT at EC50), the “AR Antagonist CV-1 Cells Efficacy (%)” value was “na (na = not active (i.e. efficacy of < 20 and potency of > 10,000 nM for the cotransfection assay, and Ki > 1000 nM for the binding assay))”. On hAR [2], this compound returned an EC50 of 14 nM. In addition, the “AR Agonist CV-1 Cells Efficacy (%)” value at hAR [2] (hAR in CV-1 cells) worked out at 80%.
Regarding `Cn1c(=O)cc(C(F)(F)F)c2cc3c(cc21)OCCN3CC(F)(F)F` [Compound 109, 1,2,3,6-Tetrahydro-6-methyl-1-(2,2,2-trifluoroethyl)-9-(trifluoromethyl)-7H-[1,4]oxazino[3,2-g]quinolin-7-one], at hAR [1], the IC50 turned out to be 24 nM. Also, on hAR [1] (hAR in CV-1 cells, DHT at EC50), the “AR Antagonist CV-1 Cells Efficacy (%)” value turned out to be 57%. The compound also displayed an EC50 at hAR [2] greater than 10000 nM. For the same compound, the “AR Agonist CV-1 Cells Efficacy (%)” value on hAR [2] (hAR in CV-1 cells) is “na (na = not active (i.e. efficacy of < 20 and potency of > 10,000 nM for the cotransfection assay, and Ki > 1000 nM for the binding assay))”.
For the compound `FC(F)(F)CN1CCOc2cc3[nH]c(=S)cc(C(F)(F)F)c3cc21` [Compound 110, 1,2,3,6-Tetrahydro-1-(2,2,2-trifluoroethyl)-9-(trifluoromethyl)-7H-[1,4]oxazino[3,2-g]quinolin-7-thione], on hAR [1], the IC50 was greater than 10000 nM. Moreover, on hAR [1] (hAR in CV-1 cells, DHT at EC50), the “AR Antagonist CV-1 Cells Efficacy (%)” value is “na (na = not active (i.e. efficacy of < 20 and potency of > 10,000 nM for the cotransfection assay, and Ki > 1000 nM for the binding assay))”. For the same compound, it took 44 nM to reach a half-maximal effect at hAR [2] (EC50). The “AR Agonist CV-1 Cells Efficacy (%)” value on hAR [2] (hAR in CV-1 cells) is 90%.
